Entries after “also recorded” stand apart in the source; their conditions may differ.
Columns and labels:
[1] = system: cancer stem cell population (ZsGreen+) established from pancreatic cancer cell line Panc-1; assay: Screening of miRNAs: cell count (cell viability) of the cancer stem cell population after transfection; format: cell-based, human; conditions: miRNA 10 pmol/well, lipofectamin 2000, cells counted 48 and 72 hours later, FIG. 4
From the text: A cancer stem cell line was established by transducing a pancreatic cancer cell line (Panc-1) with an ODC (Ornithine Decarboxylase)-Degron system capable of visualizing low metabolism that is a property of cancer stem cells using a retrovirus vector (FIG. 1a). The base sequence coding the used ODC-Degron is as set forth in SEQ ID NO: 10. Usually, cancer stem cells are so 26s proteasome hypometabolic that they cannot degrade the introduced fluorescently labeled Ornithine Decarboxylase Degron, and thus the fluorescent protein sufficiently accumulates to provide visualization.
However, even when the ODC-degron system was introduced into the pancreatic cancer cell line Panc-1, only about 0.06% cells emitting fluorescence (green) were obtained in total. With such a small number of cancer stem cells, a series of experiments including drug screening cannot be performed. Accordingly, further enrichment of cancer stem cells provided a cancer stem cell population in which cells having observed fluorescent coloring (i.e., cancer stem cells) accounted for about 81.18% in total (FIG. 1b). The obtained cancer stem cell population was designated as ZsGreen+.
A cell suspension prepared by suspending the cancer stem cell population (ZsGreen+) in a medium (DMEM medium containing 10% by volume FBS) was seeded in each well of a 24-well plate at a density of 5000 to 10000 cells/well, followed by culture at 37° C. overnight. Thereafter, according to the lipofectamin 2000 protocol, each miRNA was transfected at 10 pmol/well, and 48 hours and 72 hours later, the cells were counted. In addition, tests were also conducted under the same condition on a case where the miRNA was not introduced (untreated group, control), a case where has-miR-34a (SEQ ID NO: 8) was used (positive control) in place of the selected miRNA, and a case where a control miRNA (SEQ ID NO: 9) was used (NC1, negative control) in place of the selected miRNA. In addition, for comparison, the non-cancer stem cell population (ZsGreen−) was used in place of the cancer stem cell population (ZsGreen+) to conduct tests under the same condition.
The ratio of the number of cells under each condition to the number of control cells into which the miRNA was not introduced (cell viability, %) was determined.

[2] = system: solid tumor from the cancer stem cell population (ZsGreen+); assay: Mouse subcutaneous solid tumor model test; format: in vivo, BALB/cA nude mice; conditions: carbonate apatite nanoparticles containing the miRNA, 40 μg/dose, tail vein i.v., days 0-19; tumor excised on the 24th day
Procedure: In 100 ml of distilled water, 0.37 g of NaHCO3, 90 μl of NaH2PO4.2H2O (1M) and 180 μl of CaCl2 (1 M) were added in this order and dissolved, and the pH was adjusted to 7.5 with 1N HCl. This was filtered through 0.2 μm diameter filter. Per 1 ml of the resultant buffer, 2 μg of miRNA and 4 μl of CaCl2 (1 M) were mixed and incubated in a water bath at 37° C. for 30 minutes. Then, spin down was performed at 15000 rpm×5 minutes. The resultant pellet was dispersed in physiological saline (containing 0.5 wt % albumin). Accordingly, a dispersion of composite particles containing the miRNA in carbonate apatite particles was obtained. The resultant dispersion was subjected to ultrasonic vibration treatment for 10 minutes just prior to testing. Note that the ultrasonic vibration treatment was performed for 10 minutes using a water bath with an ultrasonic vibration function, in which the dispersion contained in a plastic container was floated on water set to 20° C., under conditions of high frequency output of 55 W and oscillation frequency of 38 kHz. The preparation obtained in this way was immediately used for the tests described below.
Note that it is confirmed in the measurement using a scanning probe microscope that the dispersion of ultrasonic vibration treatment includes composite particles composed of carbonate apatite nanoparticles containing the miRNA having an average particle diameter of 50 nm or less. It is also confirmed that the resultant composite particles contain about 20 μg of the miRNA per 1 mg of carbonate apatite.
The cancer stem cell population (ZsGreen+) obtained in Test Example 1 was subcutaneously injected at 5×10^5 cells to the left and right backs of 6 to 8 weeks age BALB/cA nude mice (manufactured by CLEA Japan, Inc.) to produce solid tumor model mice. When the tumor reached about 20 mm^3 in size, the mice were randomly divided into an hsa-miR-136-5p administration group (hsa-miR-136-5p), an untreated group, and a negative control group (control miRNA). In the hsa-miR-136-5p administration group, the day at which the tumor reached about 20 mm^3 in size was 0th day. On the 0th, 3rd, 5th, 7th, 10th, 12th, 14th, 17th and 19th days, carbonate apatite nanoparticles containing the hsa-miR-136-5p were intravenously injected into the tail vein at 40 μg/dose in terms of the amount of hsa-miR-136-5p. In the negative control group, carbonate apatite nanoparticles containing a control miRNA (SEQ ID NO: 9) were intravenously injected into the tail vein at the same schedule and dose as those for the miRNA136-5p administration group. In the untreated group, no drug was administered. During the test period, the tumor volume on the back of the mouse (longer diameter×shorter diameter×shorter diameter×1/2) was measured over time, and on the 24th day, the tumor was excised from the mice and observed for size, and its weight was measured.
A mouse subcutaneous solid tumor model test was conducted in the same manner as in Test Example 2 except that hsa-miR-3065-3p was used in place of hsa-miR-136-5p.
A mouse subcutaneous solid tumor model test was conducted in the same manner as in Test Example 2 except that hsa-miR-181-5p was used in place of hsa-miR-136-5p.

[3] = system: human pancreatic cancer cells (Bxpc3 line); assay: Antitumor effect on human pancreatic cancer cells (1), cell count after transfection; format: cell-based; conditions: 10 pmol/well, FIG. 8
Procedure: (§1) A cell suspension prepared by suspending human pancreatic cancer cells (Bxpc3 line) in D-MEM medium (containing 10% by volume FBS) was seeded in each well of a 24-well plate at 3×10^3 cells/well, followed by culture at 37° C. overnight. Thereafter, according to the lipofectamin 2000 protocol, each miRNA was transfected at 10 pmol/well, and 48 hours later, the cells were counted. In addition, tests were also conducted under the same condition on a case where the miRNA was not introduced (untreated group), a case where hsa-miR-34a (SEQ ID NO: 8) was used (positive control) in place of the miRNA, and a case where a control miRNA (SEQ ID NO: 9) was used (control miRNA, negative control) in place of the selected miRNA.

[4] = system: human pancreatic cancer cells (PSN-1 line); assay: Antitumor effect on human pancreatic cancer cells (2), cell count after transfection; format: cell-based; conditions: 10 pmol/well, 48 hours, FIG. 9
Procedure: as §1
As to hsa-miR-136-5p, hsa-miR-3065-3p and hsa-miR-181a-5p, evaluation was performed of the antitumor effect on human pancreatic cancer cells. The specific test method is the same as that for Test Example 4 except that a PSN-1 line was used as human pancreatic cancer cells.

[5] = system: human gastric cancer cells (AGS line); assay: Antitumor effect on human gastric cancer cells, cell count after transfection; format: cell-based; conditions: 10 pmol/well, 48 hours, FIG. 10
Procedure: as §1
As to hsa-miR-136-5p, hsa-miR-3065-3p and hsa-miR-181a-5p, evaluation was performed of the antitumor effect on human gastric cancer cells. The specific test method is the same as that for Test Example 4 except that human gastric cancer cells (AGS line) were used as cancer cells.

[6] = system: human large bowel cancer cells (DLD1 line); assay: Antitumor effect on human large bowel cancer cells, cell count after transfection; format: cell-based; conditions: 10 pmol/well, FIG. 11
Procedure: as §1
(§2) As to hsa-miR-136-5p, hsa-miR-3065-3p, hsa-miR-4727-5p, hsa-miR-378g, hsa-miR-181a-5p, hsa-miR-362-5p and hsa-miR-608, evaluation was performed of the antitumor effect on human large bowel cancer cells. The specific test method is the same as that for Test Example 4 except that human large bowel cancer cells (DLD1 line) were used as cancer cells, and that the cells were counted 72 hours after transfection.

[7] = system: human esophageal cancer cells (TE11 line); assay: Antitumor effect on human esophageal cancer cells, cell count after transfection; format: cell-based; conditions: 10 pmol/well, FIG. 12
Procedure: as §1
as §2, with “hsa-miR-378g and” for “hsa-miR-378g,”, “hsa-miR-181a-5p,” for “hsa-miR-181a-5p, hsa-miR-362-5p and hsa-miR-608,”, “esophageal” for “large bowel”, “(TE11” for “(DLD1”

[8] = 72 hours, positive control hsa-miR-34a
[9] = cells counted 72 hours after transfection

Substance: hsa-miR-181a-5p: human-derived miR-181a-5p; base sequence set forth in SEQ ID NO: 5 as mature miRNA (AACAUUCAACGCUGUCGGUGAGU; listed as RNA, chemistry not given here; listed as Homo sapiens)
- proliferation inhibitory effect on cancer stem cells (cell viability) [1]: effectively suppress proliferation of cancer stem cells; also recorded: prominent proliferation inhibitory effect
- antitumor effect as compared to the untreated group and the negative control group (control miRNA) [2]: remarkably higher antitumor effect
- antitumor effect ([3]; 48 hours, positive control hsa-miR-34a): much better antitumor effect than that of hsa-miR-34a
- proliferation inhibitory effect on pancreatic cancer cells ([3]; cells counted 48 hours later): strong proliferation inhibitory effect
- proliferation inhibitory effect on pancreatic cancer cells [4]: strong proliferation inhibitory effect
- proliferation inhibitory effect on gastric cancer cells [5]: strong proliferation inhibitory effect
- antitumor effect ([5]; positive control hsa-miR-34a): much better antitumor effect than that of hsa-miR-34a; also recorded: particularly remarkable antitumor effect
- antitumor effect [6, 8]: much better antitumor effect than that of hsa-miR-34a; also recorded: particularly remarkable antitumor effect
- proliferation inhibitory effect on large bowel cancer cells [6, 9]: strong proliferation inhibitory effect
- antitumor effect [7, 8]: much better antitumor effect than that of hsa-miR-34a; also recorded: particularly remarkable antitumor effect
- proliferation inhibitory effect on esophageal cancer cells [7, 9]: strong proliferation inhibitory effect
